{"source": "paper PMC6471197", "about": "“Biological Activity and In Silico Study of 3-Modified Derivatives of Betulin and Betulinic Aldehyde” (International Journal of Molecular Sciences, 2019)", "key": {"[1]": {"test_system": "MCF-10A (normal mammary gland)", "assay": "SRB antiproliferative assay on MCF-10A cells", "type": "cell-based, human", "settings": "Neg = negative in the concentration used", "procedure": "(§1) The applied human cell lines such as MV-4-11 (biphenotypic B myelomonocytic leukaemia), A549 (lung adenocarcinoma), Du-145 (prostate), Hs294T (melanoma), MCF-7 (breast adenocarcinoma) and MCF-10A (normal mammary gland) were obtained from the American Type Culture Collection (ATCC, Rockville, MD, USA). The all cell lines are maintained at the Cell Culture Collection of the Institute of Immunology and Experimental Therapy (Wrocław, Poland). The cells were plated in 96-well plates (Sarstedt, Newton, MA, USA) at a density of 1 × 10^4 cells per well in 100 µL of appropriate culture medium overnight. Biphenotypic B myelomonocytic leukaemia (MV-4-11) cells were cultured in RPMI 1640 medium (Gibco, Scotland, UK) with GlutaMAX (Thermo-Fisher Scientific, Warsaw, Poland) adjusted to contain 1.0 mM sodium pyruvate (Sigma-Aldrich, Chemie GmbH, Steinheim, Germany). Human lung adenocarcinoma (A549) cells were cultured in mixture RPMI 1640 and Opti-MEM medium (Gibco, Scotland, UK) supplemented with GlutaMAX (ThermoFisher Scientific, Warsaw, Poland) and 2mM L-glutamine adjusted to contain 1.0 mM sodium pyruvate. Human prostate (Du-145) and human breast adenocarcinoma (MCF-7) cells were cultured in Eagle medium (IIET, Wrocław, Poland), supplemented with 2 mM L-glutamine adjusted to contain 1.0 mM sodium pyruvate. Human melanoma (Hs294T) cells were cultured in Dulbecco medium (Gibco, Scotland, UK) supplemented with 2 mM L-glutamine. The normal human mammary gland cells (MCF-10A) were cultured in Ham’s F-12 medium containing 2 mM L-glutamine, 5% horse serum, epidermal growth factor EGF (100 μL/100 mL of medium), hydrocortisone (1 mL/ 100 mL of medium), insulin (100 μL/100 mL of medium) and cholera toxin (0.1 mL/100 mL of medium). All applied culture media except MCF-10A were supplemented with 10% of FBS (MV-4-11 cultured with FBS derived from Sigma-Aldrich, Chemie GmbH, Steinheim, Germany, the other cell lines FBS HyClone Thermo-Fisher Scientific, Warsaw, Poland) and streptomycin (100 µg/mL), penicillin (100 U/mL) (both from Polfa, Tarchomin, Poland). The tested cell lines were grown at 37 °C in humid atmosphere saturated with 5% CO2. In our studies were used two assays for determination the cytotoxic activity in vitro of triterpene derivatives. By dissolving 1 mg of each tested compound in 100 µL of DMSO, stock solutions at a 10 mg/mL were obtained. Next, the stock solutions were diluted in appropriate culture medium to reach the required concentrations of compounds ranging from 0.1 to 100 µg/mL. The MTT assay was used for the cytotoxicity screening against biphenotypic B myelomonocytic leukaemia (MV-4-11). The SRB assay was performed for adherent cells such as A549, Du-145, Hs294T, MCF-7 and MCF-10A. Both assays were carried as described by Wietrzyk et al.. The triterpenes in given concentration were examined in triplicates in each experiment, which was repeated 3 times. The results of anticancer activity in vitro were presented as an IC50 in µM. Cisplatin and betulin 1 were used as reference substances."}, "Hs294T (melanoma)": {"test_system": "Hs294T (melanoma)", "assay": "SRB antiproliferative assay on Hs294T cells", "type": "cell-based, human", "settings": "Homo sapiens, Hs 294T; SRB assay", "procedure": "as §1"}, "Du-145 (prostate)": {"test_system": "Du-145 (prostate)", "assay": "SRB antiproliferative assay on Du-145 cells", "type": "cell-based, human", "settings": "Homo sapiens, DU-145; SRB assay", "procedure": "as §1"}, "[2]": {"test_system": "MV-4-11 (biphenotypic B myelomonocytic leukaemia) cell line", "assay": "MTT antiproliferative assay on MV-4-11 cells", "type": "cell-based, human", "settings": "for IC50: Homo sapiens, MV4-11", "procedure": "as §1"}, "[3]": {"test_system": "A549 (lung adenocarcinoma)", "assay": "SRB antiproliferative assay on A549 cells", "type": "cell-based, human", "settings": "Homo sapiens, A549", "procedure": "as §1"}, "[4]": {"test_system": "MCF-7 (breast adenocarcinoma)", "assay": "SRB antiproliferative assay on MCF-7 cells", "type": "cell-based, human", "settings": "Homo sapiens, MCF7; SRB assay", "procedure": "as §1"}, "[5]": {"set-up": "method as in PMID 17851638", "settings": "cited from earlier work"}, "[6]": {"test_system": "PC-3, Jurkat, HeLa, HepG2 and HT-29", "set-up": "method as in PMID 20494586", "settings": "range over PC-3, Jurkat, HepG2, HT-29, read-out: IC50 in the tested cancer cell lines; cited from earlier work"}, "lung A549 cell line": {"test_system": "lung A549 cell line", "set-up": "method as in PMID 20460723", "settings": "cited from earlier work"}, "[7]": {"test_system": "MCF-7/ADR cells (multidrug-resistant breast cancer)", "set-up": "method as in PMID 25817774", "settings": "read-out: IC50 towards MCF-7/ADR cells; cited from earlier work"}, "[8]": {"settings": "MTT assay, Neg = negative in the concentration used"}}}
{"smiles": "C#CCOC(=O)O[C@H]1CC[C@@]2(C)C(CC[C@]3(C)C2CCC2C4C(C(=C)C)CC[C@]4(CO)CC[C@]23C)C1(C)C", "note": "(some centres unmarked) [Compound 13, 3-Propargyloxycarbonylbetulin]", "values": [{"measurement": "Antiproliferative Activity IC50 MCF-10A", "setting": "[1]", "value": "Neg"}, {"measurement": "IC50", "setting": "Hs294T (melanoma)", "value": "82.7 ± 8.4", "unit": "µM"}, {"measurement": "IC50", "setting": "Du-145 (prostate)", "value": "95.1 ± 16.8", "unit": "µM"}, {"measurement": "IC50", "setting": "[2]; [8]", "value": "7.4 ± 1.7", "unit": "µM"}, {"measurement": "IC50", "setting": "[3]", "value": "14.9 ± 2.5", "unit": "µM"}, {"measurement": "IC50", "setting": "[4]", "value": "28.9 ± 4.6", "unit": "µM"}]}
{"smiles": "C#CCCOC(=O)O[C@H]1CC[C@@]2(C)C(CC[C@]3(C)C2CCC2C4C(C(=C)C)CC[C@]4(CO)CC[C@]23C)C1(C)C", "note": "(some centres unmarked) [Compound 14, 3-(3-Butynyloxycarbonyl)betulin]", "values": [{"measurement": "Antiproliferative Activity IC50 MCF-10A", "setting": "[1]", "value": "Neg"}, {"measurement": "IC50", "setting": "Hs294T (melanoma)", "value": "164 ± 15.8", "unit": "µM"}, {"measurement": "IC50", "setting": "Du-145 (prostate)", "value": "126 ± 13.2", "unit": "µM"}, {"measurement": "IC50", "setting": "[2]; [8]", "value": "8.9 ± 0.9", "unit": "µM"}, {"measurement": "IC50", "setting": "[3]", "value": "33.8 ± 2.8", "unit": "µM"}, {"measurement": "IC50", "setting": "[4]", "value": "39.2 ± 6.9", "unit": "µM"}]}
{"smiles": "C=C(C)C1CC[C@]2(C=O)CC[C@]3(C)C(CCC4[C@@]5(C)CC[C@H](OC(=O)CC)C(C)(C)C5CC[C@]43C)C12", "note": "(some centres unmarked) [Compound 15, 3-Propanoylbetulinic aldehyde]", "values": [{"measurement": "IC50", "setting": "[2]; [8]", "value": "71.8 ± 22.9", "unit": "µM"}]}
{"smiles": "C=CC(=O)O[C@H]1CC[C@@]2(C)C(CC[C@]3(C)C2CCC2C4C(C(=C)C)CC[C@]4(C=O)CC[C@]23C)C1(C)C", "note": "(some centres unmarked) [Compound 16, 3-(2-Propenoyl)betulinic aldehyde]", "values": [{"measurement": "IC50", "setting": "[1]; Homo sapiens, MCF-10A", "value": "113 ± 11.7", "unit": "µM"}, {"measurement": "IC50", "setting": "Hs294T (melanoma)", "value": "74.4 ± 7.3", "unit": "µM"}, {"measurement": "IC50", "setting": "Du-145 (prostate)", "value": "67.1 ± 4.6", "unit": "µM"}, {"measurement": "IC50", "setting": "[2]; [8]", "value": "5.8 ± 1.8", "unit": "µM"}, {"measurement": "fold more potent than 3-acetylbetulinic aldehyde 3 against MV-4-11", "setting": "[2]; MV-4-11 cells", "value": 6, "unit": "fold"}, {"measurement": "IC50", "setting": "[3]", "value": "15.1 ± 5", "unit": "µM"}, {"measurement": "IC50", "setting": "[4]", "value": "60.4 ± 4.4", "unit": "µM"}]}
{"smiles": "C=C(C)C1CC[C@]2(C=O)CC[C@]3(C)C(CCC4[C@@]5(C)CC[C@H](OC(=O)C#CC6CC6)C(C)(C)C5CC[C@]43C)C12", "note": "(some centres unmarked) [Compound 17, 3-(3-Cyclopropyl-2-propynoyl)betulinic aldehyde]", "values": [{"measurement": "IC50", "setting": "[2]; [8]", "value": "86.7 ± 42.8", "unit": "µM"}]}
{"smiles": "C=C(C)C1CC[C@]2(C=O)CC[C@]3(C)C(CCC4[C@@]5(C)CC[C@H](OC(=O)C#Cc6ccccc6)C(C)(C)C5CC[C@]43C)C12", "note": "(some centres unmarked) [Compound 18, 3-Phenylpropynoylbetulinic aldehyde]", "values": [{"measurement": "MV-4-11 IC50", "setting": "[2]; [8]", "value": "Neg"}]}
{"smiles": "C=C(C)C1CC[C@]2(C=O)CC[C@]3(C)C(CCC4[C@@]5(C)CC[C@H](OC(=O)C#CC)C(C)(C)C5CC[C@]43C)C12", "note": "(some centres unmarked) [Compound 19, 3-(2-Butynoyl)betulinic aldehyde]", "values": [{"measurement": "IC50", "setting": "[2]; [8]", "value": "35.9 ± 4.9", "unit": "µM"}]}
{"smiles": "C=C(C)C1CC[C@]2(C=O)CC[C@]3(C)C(CCC4[C@@]5(C)CC[C@H](OC(=O)OCC)C(C)(C)C5CC[C@]43C)C12", "note": "(some centres unmarked) [Compound 20, 3-Ethoxycarbonylbetulinic aldehyde]", "values": [{"measurement": "IC50", "setting": "[2]; [8]", "value": "25.1 ± 7.2", "unit": "µM"}]}
{"smiles": "C=C(C)C1CC[C@]2(C=O)CC[C@]3(C)C(CCC4[C@@]5(C)CC[C@H](OC(=O)OCCC)C(C)(C)C5CC[C@]43C)C12", "note": "(some centres unmarked) [Compound 21, 3-Propoxycarbonylbetulinic aldehyde]", "values": [{"measurement": "IC50", "setting": "[2]; [8]", "value": "80.2 ± 14.4", "unit": "µM"}]}
{"smiles": "C=CCOC(=O)O[C@H]1CC[C@@]2(C)C(CC[C@]3(C)C2CCC2C4C(C(=C)C)CC[C@]4(C=O)CC[C@]23C)C1(C)C", "note": "(some centres unmarked) [Compound 22, 3-Allyloxycarbonylbetulinic aldehyde]", "values": [{"measurement": "IC50", "setting": "[2]; [8]", "value": "38.3 ± 4.6", "unit": "µM"}]}
{"smiles": "C#CCOC(=O)O[C@H]1CC[C@@]2(C)C(CC[C@]3(C)C2CCC2C4C(C(=C)C)CC[C@]4(C=O)CC[C@]23C)C1(C)C", "note": "(some centres unmarked) [Compound 23, 3-Propargyloxycarbonylbetulinic aldehyde]", "values": [{"measurement": "IC50", "setting": "[2]; [8]", "value": "30 ± 6.1", "unit": "µM"}]}
{"smiles": "C#CCCOC(=O)O[C@H]1CC[C@@]2(C)C(CC[C@]3(C)C2CCC2C4C(C(=C)C)CC[C@]4(C=O)CC[C@]23C)C1(C)C", "note": "(some centres unmarked) [Compound 24, 3-(3-Butynyloxycarbonyl)betulinic aldehyde]", "values": [{"measurement": "IC50", "setting": "[2]; [8]", "value": "28.3 ± 7.4", "unit": "µM"}]}
{"smiles": "C=C(C)[C@@H]1CC[C@]2(C(=O)O)CC[C@]3(C)[C@H](CC[C@@H]4[C@@]5(C)CC[C@H](O)C(C)(C)[C@@H]5CC[C@]43C)[C@@H]12", "note": "[betulinic acid]", "values": [{"measurement": "water solubility", "setting": "[5]", "value": "< 1", "unit": "µM"}, {"measurement": "IC50", "setting": "[6]", "value": "12.8 to 36.4", "unit": "µM"}, {"measurement": "IC50 against lung A549 cell line", "setting": "lung A549 cell line", "value": 8.4, "unit": "mg/L"}, {"measurement": "IC50", "setting": "[7]", "value": 38.5, "unit": "µM"}]}
